According to patent US9612237B2, “Ritalinic acid immunoassay” (Randox Laboratories Limited, priority 2013, dated 2017):
Structures can show the parent of a compound that is named as a salt.

What follows are compounds tested on antisera generated in response to immunogen of Example 11 (assay: Competitive chemiluminescent biochip immunoassay, antisera raised against immunogen of Example 11, conjugate of Example 12). Settings: not given.
Type: binding, sheep
For `CN1CCCC1c1cccnc1` (single isomer, unassigned; (-)) [(−)-nicotine], the “Concentration exhibiting no cross-reactivity” value was 22 µg/mL. With `Oc1cccc(N2CCNCC2)c1` [1-(3-hydroxyphenyl)-piperazine] the “Concentration exhibiting no cross-reactivity” value was 0.4 µg/mL. For `CC(=O)Nc1ccc(O)c(SC[C@H](NC(C)=O)C(=O)[O-])c1.[Na+]` [3-(N-acetyl-L-cystein-s-yl) acetaminophen sodium salt], the “Concentration exhibiting no cross-reactivity” value was 250 µg/mL. With `CC(=O)Nc1ccc(O)c(SC[C@H](N)C(=O)O)c1.O=C(O)C(F)(F)F` [3-cysteinylacetaminophen trifluoroacetic acid salt] the “Concentration exhibiting no cross-reactivity” value was 250 µg/mL. `CC(=O)Nc1ccc(OS(=O)(=O)[O-])cc1.[K+]` [4-acetaminophen sulphate potassium salt] was tested, and the “Concentration exhibiting no cross-reactivity” value was 250 µg/mL. `Cl.NC1CCC(c2ccc(Cl)c(Cl)c2)c2ccccc21` (stereo not shown) [N-desmethyl sertraline HCl] was tested, and the “Concentration exhibiting no cross-reactivity” value was 10 µg/mL. With `CN1C(=O)CN=C(c2ccccc2)c2cc(Cl)ccc21` [diazepam] the “Concentration exhibiting no cross-reactivity” value was 3 µg/mL. In the case of `COc1ccc2cc([C@H](C)C(=O)O)ccc2c1` [naproxen], the “Concentration exhibiting no cross-reactivity” value is reported as 250 µg/mL. For `CNCCC=C1c2ccccc2CCc2ccccc21` [nortriptyline HCl], the “Concentration exhibiting no cross-reactivity” value was 10 µg/mL. For `CN(C(=O)O[C@@H]1O[C@H](C(=O)O)[C@@H](O)[C@H](O)[C@H]1O)[C@H]1CC[C@@H](c2ccc(Cl)c(Cl)c2)c2ccccc21` [sertraline carbamoyl glocuronide], the “Concentration exhibiting no cross-reactivity” value was 3 µg/mL.

Same assay, conditions: biochip; relative to methylphenidate = 100
`CCOC(=O)[C@@H](c1ccccc1)[C@H]1CCCCN1.Cl` (racemic) [rac-erythro-ethylphenidate HCl] was tested, and the “% cross reactivity” value was 1.9%. For `CN[C@@H](C)[C@@H](O)c1ccccc1.Cl` [(+)-pseudoephedrine HCl], the “% cross reactivity” value was 0.2%. For `c1ccc(C2(N3CCCCC3)CCCCC2)cc1` [PCP], the “% cross reactivity” value was <0.1%. In the case of `CCN(CC)CCN1C(=O)CN=C(c2ccccc2F)c2cc(Cl)ccc21` [flurazepam], the “% cross reactivity” value is reported as <1%.

Same assay, conditions: value is the concentration at which no cross-reactivity was exhibited
With `CNCC1CCCCC1(O)c1cccc(O)c1` (racemic) [rac N,O-didesmethyl tramadol] the “Concentration exhibiting no cross-reactivity” value was 0.18 µg/mL. `COc1cccc(C2(O)CCCCC2CN)c1.Cl` (racemic) [rac N-bisdesmethyl tramadol HCl] was tested, and the “Concentration exhibiting no cross-reactivity” value was 0.18 µg/mL. In the case of `CC(C(=O)O)c1ccc(CC(C)(C)O)cc1` (racemic) [rac-2-hydroxy ibuprofen], the “Concentration exhibiting no cross-reactivity” value is reported as 125 µg/mL. For `CCC(=O)OC(Cc1ccccc1)(c1ccccc1)C(C)CNC.O=C(O)/C=C\C(=O)O` (single isomer, unassigned; (+)) [(+)-norpropoxyphene maleate], the “Concentration exhibiting no cross-reactivity” value was 10 µg/mL. For `c1ccc(CN2CCNCC2)cc1` [1-benzylpiperiazine], the “Concentration exhibiting no cross-reactivity” value was 10 µg/mL. `O=C(O)c1cccc(O)c1O` [2,3-dihydroxy benzoic acid] was tested, and the “Concentration exhibiting no cross-reactivity” value was 250 µg/mL. In the case of `COc1ccc2c(c1)[C@@]13CCCC[C@H]1[C@@H](C2)NCC3.Cl` [3-methoxymorphinan HCl], the “Concentration exhibiting no cross-reactivity” value is reported as 0.25 µg/mL. For `CC(=O)Nc1ccc(O[C@@H]2O[C@H](C(=O)[O-])[C@@H](O)[C@H](O)[C@H]2O)cc1.[Na+]` [4-acetamidophenyl β-D-glucuronide sodium salt], the “Concentration exhibiting no cross-reactivity” value was 250 µg/mL. With `Nc1ccc(C(=O)O)c(O)c1` [4-aminosalicylic acid] the “Concentration exhibiting no cross-reactivity” value was 250 µg/mL. For `CN1C(=O)CN=C(c2ccccc2F)c2cc(N)ccc21` [7-NH flunitrazepam], the “Concentration exhibiting no cross-reactivity” value was 10 µg/mL. In the case of `CC(C)Cc1ccc([C@@H](C)C(=O)O)cc1` [(R)-(−)-ibuprofen], the “Concentration exhibiting no cross-reactivity” value is reported as 250 µg/mL. In the case of `CN(C)CCC[C@]1(c2ccc(F)cc2)OCc2cc(C#N)ccc21.O=C(O)C(=O)O` [(R)-citalopram oxalate], the “Concentration exhibiting no cross-reactivity” value is reported as 1.5 µg/mL. For `CN1C(=O)CC[C@H]1c1cccnc1` [(−)-cotinine], the “Concentration exhibiting no cross-reactivity” value was 22 µg/mL. `C[C@H](N)Cc1ccccc1` [D-amphetamine] was tested, and the “Concentration exhibiting no cross-reactivity” value was 10 µg/mL. `O=C[C@H](O)[C@@H](O)[C@H](O)[C@H](O)C(=O)O` [D-glucuronic acid] was tested, and the “Concentration exhibiting no cross-reactivity” value was 60 µg/mL. `CCN(CC)C(=O)[C@@H]1C=C2c3cccc4[nH]cc(c34)C[C@H]2N(C)C1` [LSD] was tested, and the “Concentration exhibiting no cross-reactivity” value was 10 µg/mL. `CN[C@@H](C)Cc1ccccc1` [MAMP] was tested, and the “Concentration exhibiting no cross-reactivity” value was 2.5 µg/mL. `CNC(C)Cc1ccc2c(c1)OCO2` (stereo not shown) [MDMA] was tested, and the “Concentration exhibiting no cross-reactivity” value was 5 µg/mL. For `CC(=O)N=C1C=CC(=O)C=C1` [N-acetylbenzoquinomeimine], the “Concentration exhibiting no cross-reactivity” value was 125 µg/mL. In the case of `Oc1ccc2c(c1)[C@@]13CCCC[C@H]1[C@@H](C2)NCC3` [N-desmethyl dextorphan], the “Concentration exhibiting no cross-reactivity” value is reported as 0.25 µg/mL. `Br.CNCCC[C@@]1(c2ccc(F)cc2)OCc2cc(C#N)ccc21` [N-desmethyl escitalopram hydrobromide] was tested, and the “Concentration exhibiting no cross-reactivity” value was 10 µg/mL. For `CC(C)Cc1ccc(C(C)C(=O)O)cc1` (stereo not drawn) [S-(+)-ibuprofen], the “Concentration exhibiting no cross-reactivity” value was 250 µg/mL. For `CC(=O)Oc1ccccc1C(=O)O` [aspirin], the “Concentration exhibiting no cross-reactivity” value was 250 µg/mL. `CC(=O)Nc1ccc(OC(=O)c2ccccc2OC(C)=O)cc1` [benorylate HCl] was tested, and the “Concentration exhibiting no cross-reactivity” value was 250 µg/mL. `O=C(O)c1ccccc1` [benzoic acid] was tested, and the “Concentration exhibiting no cross-reactivity” value was 250 µg/mL. For `COc1ccc2c3c1O[C@H]1[C@@H](O)C=C[C@H]4[C@@H](C2)N(C)CC[C@@]341` [codeine], the “Concentration exhibiting no cross-reactivity” value was 0.25 µg/mL. For `CCCCCc1cc(O)c2c(c1)OC(C)(C)[C@@H]1CCC(C)=C[C@@H]21` [delta-9-THC], the “Concentration exhibiting no cross-reactivity” value was 10 µg/mL. For `COc1ccc2c(c1)[C@]13CCCC[C@@H]1[C@H](C2)N(C)CC3` [dextromethorphan hydrobromide monohydrate], the “Concentration exhibiting no cross-reactivity” value was 10 µg/mL. In the case of `O=C(O)c1cc(-c2ccc(F)cc2F)ccc1O` [diflusinal], the “Concentration exhibiting no cross-reactivity” value is reported as 250 µg/mL. With `CCc1nn(CCCN2CCN(c3cccc(Cl)c3)CC2)c(=O)n1CC` [etoperidone HCl] the “Concentration exhibiting no cross-reactivity” value was 0.4 µg/mL. `CNCCC(Oc1ccc(C(F)(F)F)cc1)c1ccccc1` (stereo not shown) [fluoxetine HCl] was tested, and the “Concentration exhibiting no cross-reactivity” value was 10 µg/mL. `O=C(O)c1cc(O)ccc1O` [gentisic acid] was tested, and the “Concentration exhibiting no cross-reactivity” value was 250 µg/mL. With `O=C(O)CNC(=O)c1cc(O)ccc1O` [gentisuric acid] the “Concentration exhibiting no cross-reactivity” value was 250 µg/mL. With `CC(=O)Oc1ccc2c3c1O[C@H]1[C@@H](OC(C)=O)C=C[C@H]4[C@@H](C2)N(C)CC[C@@]341` [heroin] the “Concentration exhibiting no cross-reactivity” value was 10 µg/mL. `COc1ccc2c3c1O[C@H]1C(=O)CC[C@H]4[C@@H](C2)N(C)CC[C@]314` [hydrocodone] was tested, and the “Concentration exhibiting no cross-reactivity” value was 10 µg/mL. With `CC(C)Cc1ccc(CC(=O)O)cc1` [ibufenac] the “Concentration exhibiting no cross-reactivity” value was 250 µg/mL. For `CC(Cc1ccc(C(C)C(=O)O)cc1)C(=O)O` (stereo not shown) [ibuprofen carboxylic acid], the “Concentration exhibiting no cross-reactivity” value was 250 µg/mL. For `CC(C(=O)O)c1cccc(C(=O)c2ccccc2)c1` (stereo not shown) [ketoprofen], the “Concentration exhibiting no cross-reactivity” value was 250 µg/mL. `CN1CC[C@]23CCCC[C@H]2[C@H]1Cc1ccc(O)cc13` [levorphanol] was tested, and the “Concentration exhibiting no cross-reactivity” value was 0.25 µg/mL. `O=C1Nc2ccc(Cl)cc2C(c2ccccc2Cl)=NC1O` (stereo not shown) [lorazepam] was tested, and the “Concentration exhibiting no cross-reactivity” value was 3 µg/mL. In the case of `CCC(C)C(C)(COC(N)=O)COC(N)=O` (stereo not shown) [mebutamate], the “Concentration exhibiting no cross-reactivity” value is reported as 0.35 µg/mL. `CCCC(C)(COC(N)=O)COC(N)=O` [meprobamate] was tested, and the “Concentration exhibiting no cross-reactivity” value was 10 µg/mL. `COc1ccc(NC(C)=O)cc1` [methacetin] was tested, and the “Concentration exhibiting no cross-reactivity” value was 250 µg/mL. In the case of `CCC(=O)C(CC(C)N(C)C)(c1ccccc1)c1ccccc1` (stereo not shown) [methadone], the “Concentration exhibiting no cross-reactivity” value is reported as 10 µg/mL. In the case of `Cc1ccccc1-n1c(C)nc2ccccc2c1=O` [methaqualone], the “Concentration exhibiting no cross-reactivity” value is reported as 10 µg/mL. In the case of `COC(=O)c1ccccc1O` [methyl salicylate], the “Concentration exhibiting no cross-reactivity” value is reported as 250 µg/mL. In the case of `O=C1CN=C(c2ccccc2)c2cc(Cl)ccc2N1` [nordiazepam], the “Concentration exhibiting no cross-reactivity” value is reported as 3 µg/mL. For `CCOC(=O)C1(c2ccccc2)CCNCC1` [normeperidine], the “Concentration exhibiting no cross-reactivity” value was 1 µg/mL. For `COc1ccc2c3c1O[C@H]1C(=O)CC[C@@]4(O)[C@@H](C2)N(C)CC[C@]314` [oxycodone], the “Concentration exhibiting no cross-reactivity” value was 10 µg/mL. For `CCOc1ccc(N)cc1` [p-phenetidine], the “Concentration exhibiting no cross-reactivity” value was 106.35 µg/mL. In the case of `Oc1ccc(C(F)(F)F)cc1` [p-trifluoromethylphenol], the “Concentration exhibiting no cross-reactivity” value is reported as 2.5 µg/mL. For `CCOc1ccc(NC(C)=O)cc1` [phenacetin], the “Concentration exhibiting no cross-reactivity” value was 250 µg/mL. For `NCCc1ccccc1.O=S(=O)(O)O` [phenethylamine sulfate], the “Concentration exhibiting no cross-reactivity” value was 250 µg/mL. With `O=C(Oc1ccccc1C(=O)O)c1ccccc1O` [salsalate] the “Concentration exhibiting no cross-reactivity” value was 250 µg/mL. `CN[C@H]1CC[C@@H](c2ccc(Cl)c(Cl)c2)c2ccccc21` [sertaline] was tested, and the “Concentration exhibiting no cross-reactivity” value was 7.5 µg/mL. In the case of `CN1C(=O)C(O)N=C(c2ccccc2)c2cc(Cl)ccc21` (stereo not shown) [temazepam], the “Concentration exhibiting no cross-reactivity” value is reported as 3 µg/mL.
